Data reported in US20260041744A1, “Methods for Treating Pompe Disease” (Amicus Therapeutics, Inc., priority 2022, published 2026).
“Also recorded” adds a separate entry of the source.

How the values were obtained:
[1] = system: adult subjects with late-onset Pompe disease (LOPD); assay: Study ATB200-03: SGIC, PGIC and additional PROs (PROMIS-dyspnea, PROMIS-upper extremity, R-PAct, EQ-5D-5L); assay type: in vivo, human; settings: week 52
Description: Additional PROs included PROMIS-dyspnea, PROMIS-upper extremity, R-PACT, EQ-5D-5L, SGIC. The PGIC was also included.
Across all of these domains a greater percentage of patients in the overall population treated with cipaglucosidase alfa/miglustat reported improvement, and a lower percentage reported worsening, compared with patients treated with alglucosidase alfa. […] Results are shown below for the SGIC overall physical well-domain, which is representative of the benefits reported across these measures (FIG. 86).

[2] = system: adults with Pompe disease; assay: Study ATB200-02: patient-reported outcomes (FSS, R-PAct, RHS); assay type: in vivo, human
Description: Favorable findings observed through 48 months of treatment in 6MWD and FVC are bolstered by favorable directional trends in several other secondary endpoints for muscle strength, motor function, and respiratory function.
PROs supported the improvements observed for motor function, muscle strength and pulmonary function tests. […] SGIC outcomes for overall physical wellbeing improved in most patients across all cohorts after 48 months of follow up (Table 26C). PGIC results indicated an improvement or stabilization for all cohorts after 48 months of follow up and supported the results of other efficacy outcomes (Table 26C).
One patient reported no change, and one reported an improvement from baseline in SGIC overall physical wellbeing.

[3] = in vivo
Description: Mean (SD) duration of treatment was 37.2 (14.48), 19.9 (4.13) and 36.9 (12.14) months in cohorts 1 (prior ERT 2-6 years), 4 (prior ERT ≥7 years) and 3 (ERT naive), respectively.
Mean (SD) duration of treatment was 46.3 (22.86) months.

[4] = system: adults with Pompe disease; assay: Study ATB200-02: urine Hex4; settings: for mean reduction from baseline in urine Hex4: b512 prints a minus sign;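 on all read-outs here: Hex4 is the urine glucose tetrasaccharide biomarker, measured at regular intervals during study follow-up and compared with each patient's baseline value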
Description: The change from baseline (CFBL) in 6MWD, % predicted sitting FVC, manual muscle test (MMT) and biomarkers—urine glucose tetrasaccharide (Hex4) and serum creatine kinase (CK)—were assessed at regular intervals.

[5] = Ambulatory ERT-experienced, 12 months
[6] = Ambulatory ERT-experienced, 24 months
[7] = Ambulatory ERT-experienced, 36 months
[8] = Ambulatory ERT-experienced, 48 months
[9] = Ambulatory ERT-naïve, 12 months
[10] = Ambulatory ERT-naïve, 24 months
[11] = Ambulatory ERT-naïve, 36 months
[12] = Ambulatory ERT-naïve, 48 months
[13] = Non-ambulatory ERT-experienced, 12 months
[14] = Non-ambulatory ERT-experienced, 24 months
[15] = Non-ambulatory ERT-experienced, 36 months
[16] = Non-ambulatory ERT-experienced, 48 months

Substance: ATB200/miglustat: two-component therapy: cipaglucosidase alfa (ATB200) administered in conjunction with miglustat (AT2221), a stabilizer of cipaglucosidase alfa
- SGIC and PGIC outcome [1]: SGIC and PGIC showed consistently greater improvement favoring cipaglucosidase alfa/miglustat treatment
- patient-reported outcomes FSS, R-PAct, RHS ([2]; 48 months, listed as cipaglucosidase alfa/miglustat): meaningful improvements in subject-perceived fatigue, ability to perform daily life activities, and overall physical well-being; also recorded: all ambulatory patients reported stable R-PAct scores and RHS compared with baseline scores; also recorded: improved FSS and stable RHS scores compared with baseline
- Fatigue Severity Scale, CFBL mean [2, 5]: −2.9
- Rasch-built Pompe-specific Activity, CFBL mean [2, 5]: 1.3
- Rotterdam Handicap Scale, CFBL mean [2, 5]: −0.3
- Fatigue Severity Scale, CFBL mean [2, 6]: −3.1
- Rasch-built Pompe-specific Activity, CFBL mean [2, 6]: 2.2
- Rotterdam Handicap Scale, CFBL mean [2, 6]: −1.1
- Fatigue Severity Scale, CFBL mean [2, 7]: 1.4
- Rasch-built Pompe-specific Activity, CFBL mean [2, 7]: −0.1
- Rotterdam Handicap Scale, CFBL mean [2, 7]: −2.3
- Fatigue Severity Scale, CFBL mean [2, 8]: −3.4
- Rasch-built Pompe-specific Activity, CFBL mean [2, 8]: −0.3
- Rotterdam Handicap Scale, CFBL mean [2, 8]: −2.3
- Fatigue Severity Scale, CFBL mean [2, 9]: −6.3
- Rasch-built Pompe-specific Activity, CFBL mean [2, 9]: 2.0
- Rotterdam Handicap Scale, CFBL mean [2, 9]: −0.4
- Fatigue Severity Scale, CFBL mean [2, 10]: −5.5
- Rasch-built Pompe-specific Activity, CFBL mean [2, 10]: 2.2
- Rotterdam Handicap Scale, CFBL mean [2, 10]: −0.4
- Fatigue Severity Scale, CFBL mean [2, 11]: −6.2
- Rasch-built Pompe-specific Activity, CFBL mean [2, 11]: 1.4
- Rotterdam Handicap Scale, CFBL mean [2, 11]: −1.2
- Fatigue Severity Scale, CFBL mean [2, 12]: 1.2
- Rasch-built Pompe-specific Activity, CFBL mean [2, 12]: −0.6
- Rotterdam Handicap Scale, CFBL mean [2, 12]: −1.3
- Fatigue Severity Scale, CFBL mean [2, 13]: −9.2
- Rasch-built Pompe-specific Activity, CFBL mean [2, 13]: 1.4
- Rotterdam Handicap Scale, CFBL mean [2, 13]: 0.6
- Fatigue Severity Scale, CFBL mean [2, 14]: −23.0
- Rasch-built Pompe-specific Activity, CFBL mean [2, 14]: 0.8
- Rotterdam Handicap Scale, CFBL mean [2, 14]: 0.6
- Fatigue Severity Scale, CFBL mean [2, 15]: −10.0
- Rasch-built Pompe-specific Activity, CFBL mean [2, 15]: 0.8
- Rotterdam Handicap Scale, CFBL mean [2, 15]: 0.6
- Fatigue Severity Scale, CFBL mean [2, 16]: −12.0
- Rasch-built Pompe-specific Activity, CFBL mean [2, 16]: 2.0
- Rotterdam Handicap Scale, CFBL mean [2, 16]: −1.5
- patients with nasopharyngitis and with diarrhea (most common TEAEs) [3]: 3 patients
- Urinary Hex4, % CFBL mean [4, 5]: −36.11%
- Urinary Hex4, % CFBL mean [4, 6]: −11.8%
- Urinary Hex4, % CFBL mean [4, 7]: −35.1%
- Urinary Hex4, % CFBL mean [4, 8]: −4.0%
- Urinary Hex4, % CFBL mean [4, 9]: −40.7%
- Urinary Hex4, % CFBL mean [4, 10]: −49.5%
- Urinary Hex4, % CFBL mean [4, 11]: −39.3%
- Urinary Hex4, % CFBL mean [4, 12]: −39.9%
- mean reduction from baseline in urine Hex4 ([4]; Cohort 2 (non-ambulatory ERT-experienced), 12 months, listed as cipaglucosidase alfa plus miglustat): 15.6%
- mean reduction from baseline in urine Hex4 ([4]; Cohort 2 (non-ambulatory ERT-experienced), 12 months, listed as cipaglucosidase alfa/miglustat): −15.6%
- mean reduction from baseline in urine Hex4 ([4]; Cohort 2, 24 months, listed as cipaglucosidase alfa plus miglustat): 34.1%
- mean reduction from baseline in urine Hex4 ([4]; Cohort 2, 24 months, listed as cipaglucosidase alfa/miglustat): −34.1%
- mean reduction from baseline in urine Hex4 ([4]; Cohort 2, 36 months, listed as cipaglucosidase alfa plus miglustat): 36.5%
- mean reduction from baseline in urine Hex4 ([4]; Cohort 2, 36 months, listed as cipaglucosidase alfa/miglustat): −36.5%
- mean reduction from baseline in urine Hex4 ([4]; Cohort 2, 48 months, listed as cipaglucosidase alfa plus miglustat): 9.4%
- mean reduction from baseline in urine Hex4 ([4]; Cohort 2, 48 months, listed as cipaglucosidase alfa/miglustat): −4.0%
- patients with abnormal baseline Hex4 who had normal Hex4 levels at Month 48 ([4]; ERT-experienced (four of five)): 80.0%
- patients whose urine Hex4 decreased numerically from baseline (n/N) ([4]; ERT-experienced, 12 months): 16/16
- patients whose urine Hex4 decreased numerically from baseline (n/N) ([4]; ERT-experienced, 24 months): 11/14
- patients whose urine Hex4 decreased numerically from baseline (n/N) ([4]; ERT-experienced, 36 months): 11/12
- patients whose urine Hex4 decreased numerically from baseline (n/N) ([4]; ERT-experienced, 48 months): 6/9
- patients with abnormal baseline Hex4 who returned to normal Hex4 levels at Month 48 ([4]; ERT-naïve ambulatory (one of four)): 25.0%
- patients whose urine Hex4 decreased numerically from baseline (n/N) ([4]; ERT-naïve, 12 months): 5/6
